The text below walks through data of US20110059186A1, “CANCER STEM CELL-TARGETED AND DRUG RESISTANT CANCER THERAPY” (KOMINOX USA, INC., priority 2009, published 2011).

Read-outs that look alike come from different tables or passages of the source.

Format in all cases: cell-based, human
The subject of experiment [1] is DU145 wt cells. Kind of experiment: MTT proliferation assay, DU145 wt. The method, then:
(§1) Cell Lines: DU145 wt, DU145/Pac200 and DU145/Doc50 cells were provided by Dr. Hussain, UMGCC, University of Maryland. The cell lines were cultured as recommended; in 1:1 DMEM/F12 media (Invitrogen) supplemented with 5% FBS, 1% antibiotics and grown under standard conditions at 37° C. and 5% CO2. Paclitaxel and docetaxel resistant clones were kept under selection pressure of the drugs.
(§2) MTT Proliferation Assay: Exponentially growing cells were harvested and plated in 96-well plates (1,500/well for DU145 wt, and 2,000-3,000/well for DU145/Pac200 and DU145/Doc50). Drugs being tested were added at concentrations ranging from 0.01 μM to 100 μM to asses their growth inhibitory potential. After 5 days of continuous exposure to drug, the vital dye 3-(4,5-dimethylthiazol-2-yl)-2,5-diphenyltetrazoliumbromide (MTT) was added to the plates. The conversion of MTT to purple formazan by viable cells was measured using a Synergy2 plate reader at 550 nm and Gen5 software. Growth curves were generated using Microsoft Excel and growth inhibitory concentration 50 (IC50) and 100% were determined.
A general note: Tetrazolium dyes change colour on reduction, which living cells bring about.

The test system of experiment [2] is DU145/Pac200 (paclitaxel resistant) cells. Put plainly: MTT proliferation assay, DU145/Pac200. As to the method:
as §1, §2

The subject of experiment [3] is DU145/Doc50 (docetaxel resistant) cells. Kind of experiment: MTT proliferation assay, DU145/Doc50. The method, then: as §1, §2
In experiment [4] the test system is side population of DU145 cells.
Experiment [5] deals with side population of DU145/Pac200 cells.
Experiment [6] relates to side population of DU145/Doc50 cells. As to the method:
(§3) Three samples were analyzed each time. Of the samples one was treated with DCV only, another was treated with DCV and 50 μM Verapamil (PgP inhibitor), and the last was treated with DCV and 10 μM Fumitremorgin C (FTC, BCRP inhibitor). The samples were then read and analyzed using flow cytometry.
(§4) Flow Cytometry: Samples were read on a BDLSR II flow cytometer. […] Detectors at 450/50 (blue) and 680/30 (red) intercepted the emitted wavelength and plotted the data on the scatter plot accordingly. CD44 and Pgp staining was performed using PE (Pgp) or APC (CD44) labeled antibodies and their isotype controls following routine procedures for epitope labeling.
(§5) Each of the prostate cell lines was analyzed for the existence of a cancer stem-like cell fraction using DCV side population analysis. […] The occurrence of a SP is based on the expression of drug efflux pumps such as P-glycoprotein or BCRP, which are responsible for preventing standard cytotoxic therapy from working. […] Because the hormone therapies, e.g., androgen synthesis inhibitors, are not substrates of drug efflux pumps, these findings are not surprising.

Experiment [7] concerns side population of LAPC-4 cells. The method, then: as §3, §4, §5
The test system of experiment [8] is side population of LAPC-4/CSS100 cells. The method, then: as §3, §4, §5
Experiment [9] deals with side population of LnCaP cells. As to the method:
as §3, §4, §5

The subject of experiment [10] is side population of LnCaP/C81 cells. The method, then:
as §3, §4, §5

Experiment [11] has as its system LnCaP cells. Particulars: read-out: IC50 KML001.
Experiment [12] deals with LnCaP/C81 cells. To be noted: read-out: IC50 KML001.
Experiment [13] relates to LAPC-4 cells. To be noted: read-out: IC50 KML001.
In experiment [14] the test system is LAPC-4/CSS100 cells. Particulars: read-out: IC50 KML001.
The subject of experiment [15] is DU145 cancer stem cell population. Particulars: read-out: IC50, colony forming capability.
For experiment [16], the system named is DU145/Pac200 cancer stem cell population. Particulars: read-out: IC50, colony forming capability.
For experiment [17], the system named is hTERT transcript.
In experiment [18] the test system is Pgp positive cell population of taxane-resistant prostate cancer cell lines. Put plainly: Pgp surface expression by flow cytometry. To be noted: treatment at IC50 for 72 hours. As to the method:
Flow Cytometry: Samples were read on a BDLSR II flow cytometer. A […] violet laser excited the DCV dye producing varying wavelengths based on cell differentiation. Detectors at 450/50 (blue) and 680/30 (red) intercepted the emitted wavelength and plotted the data on the scatter plot accordingly. CD44 and Pgp staining was performed using PE (Pgp) or APC (CD44) labeled antibodies and their isotype controls following routine procedures for epitope labeling.
The drug efflux pump (Pgp) is functionally expressed (at the membrane) in the majority of cells in the taxane-resistant prostate cancer cell lines, which is expected since the SP of those cell lines was suppressible with the drug efflux pump inhibitor verapamil. Treatment with KML001 at IC50 for 72 hours reduced the Pgp positive cell population, which corroborates the results of the clonogenic and SP assay.
In general terms: In flow cytometry, cells or beads pass a laser one at a time.

In experiment [19] the test system is prostate cancer cell lines (taxane-resistant, androgen resistant and parental). Put plainly: MTT assay across the panel of prostate cancer cell lines. As to the method:
as §2
Taxane resistant cell lines DU145/Pac200 (highly pacitaxel resistant) and DU145/Doc50 (highly docetaxel resistant) together with the parental cell line DU145 as well as the androgen resistant cancer cell lines (LNCaP/C81 and LAPC-4/CSS100) and their corresponding hormone responsive parental cell lines (LNCaP and LAPC-4) were tested for their response to sodium meta arsenite.
The cancer cell lines that were resistant to paclixel and docetaxel were tested using a well-established tumor clonigenic stem cell assay for their response to KML001. (FIG. 6) The assay allows only the cancer stem cell population to grow in a soft agar matrix owing to their self-renewal capability. […]

The mark [20] stands for this setting: DU145/Pac200 relative to DU145 wt.
[21] abbreviates: Du145 Doc50 relative to DU145 wt.

For orientation: IC50 means the concentration that gives 50% inhibition. As to `CC(=O)O[C@@]12CO[C@@H]1C[C@H](O)[C@@]1(C)C(=O)[C@H](O)C3=C(C)[C@@H](OC(=O)[C@H](O)[C@@H](NC(=O)OC(C)(C)C)c4ccccc4)C[C@@](O)([C@@H](OC(=O)c4ccccc4)[C@H]21)C3(C)C` [Docetaxel], the figures for the “Docetaxel Resistance (fold)” value in [1] (DU145 wt (reference line)), in experiment [2] (setting [20]) and in experiment [3] (setting [21]) were 1 fold, 400 fold and 2000 fold, respectively. Moreover, the IC50 in experiment [1] (Homo sapiens, DU-145, DU145 wt, read-out: Docetaxel IC50) was determined as 0.5 nM; in experiment [2] (Homo sapiens, DU-145, DU145/Pac200, read-out: Docetaxel IC50) it was 200 nM; in [3] (Homo sapiens, DU-145, Du145 Doc50, read-out: Docetaxel IC50), 1000 nM.
With `COc1ccc2c3c([nH]c2c1)[C@H](C=C(C)C)N1C(=O)[C@@H]2CCCN2C(=O)[C@@H]1C3` [FTC, Fumitremorgin C], the “SP % with FTC” value was 0.06% in experiment [4] (DU145, DCV with 10 μM FTC, SP 1.04 % without inhibitor); 56.5% in experiment [5] (DU145/Pac200, DCV with 10 μM FTC, SP 55 % without inhibitor); 18.35% in experiment [6] (DU145/Doc50, DCV with 10 μM FTC, SP 40.3 % without inhibitor); 2.24% in experiment [7] (LAPC-4, DCV with 10 μM FTC, SP 1.54 % without inhibitor); 0.30% in experiment [8] (LAPC-4/CSS100, DCV with 10 μM FTC, SP 0.36 % without inhibitor); 0.04% in experiment [9] (LnCaP, DCV with 10 μM FTC, SP 0.66 % without inhibitor). Moreover, the “SP % with FTC” value in experiment [10] (LnCaP/C81, DCV with 10 μM FTC, SP 0.16 % without inhibitor) was 0.11%. For the same compound, the “inhibition of SP by efflux pump inhibitor” value in experiment [5] (Pac resistant DU145 cells) and in experiment [6] (Doc resistant DU145 cells) was “not” each time. The “suppression of SP by efflux pump inhibitor” value in [7] (LAPC-4), in [8] (hormone resistant derivative of LAPC-4), in experiment [9] (LnCaP parental line) and in experiment [10] (LnCaP/C81) was “suppressible” in each case.
Consider `O=[As][O-].[Na+]` [KML001, sodium meta arsenite], for which the IC100 concentration in experiment [1] is 13 µM. The “growth inhibition” value in experiment [1] is on record as “marked inhibition of growth”; in experiment [2] (DU145/Pac200, MTT), “marked inhibition of growth”; in experiment [3] (DU145/Doc50, MTT), “marked inhibition of growth”. Besides, the IC50 in experiment [1] (read-out: IC50 KML001) worked out at 4000 nM; in experiment [2] (DU145/Pac200, MTT, 5 days continuous exposure, read-out: IC50 KML001) it was 6000 nM; in experiment [3] (DU145/Doc50, MTT, 5 days continuous exposure, read-out: IC50 KML001), 5000 nM; in experiment [11] it was 4000 nM; in experiment [12], 1000 nM; in [13], 4000 nM. For the same compound, the IC50 in experiment [14] is 3000 nM; in experiment [15] it was 6000 nM; in experiment [16], 6000 nM; in experiment [19] (taxane-resistant, androgen resistant and hormone responsive parental lines, read-out: IC50's across all prostate cancer cell lines), 1000 to 6000 nM. Further, the “effect on mature (non-SP) cells after pretreatment” value in experiment [4] and in experiment [5] was “also eradicated” in each case. For the same compound, the “effect on side population (SP) after pretreatment” value in experiment [4] and in [5] was “drastically reducing the SP” throughout. Further, the “hTERT transcript level” value in experiment [17] is on record as “significantly decreases”. In addition, the “Pgp positive cell population” value in experiment [18] was “reduced”. Moreover, the “sensitivity of resistant versus parental cell lines” value in experiment [19] (growth curves from standard MTT assays) is reported as “equally effective”.
On to `CC(=O)O[C@H]1C(=O)[C@@]2(C)[C@H]([C@H](OC(=O)c3ccccc3)[C@]3(O)C[C@H](OC(=O)[C@H](O)[C@@H](NC(=O)c4ccccc4)c4ccccc4)C(C)=C1C3(C)C)[C@]1(OC(C)=O)CO[C@@H]1C[C@@H]2O` [Paclitaxel], for which the “Paclitaxel Resistance (fold)” value in experiment [1] (DU145 wt (reference line)) came to 1 fold; in [2] (setting [20]), 140 fold; in experiment [3] (setting [21]) it was 400 fold. The IC50 turned out to be 2.5 nM in experiment [1] (Homo sapiens, DU-145, DU145 wt, read-out: Paclitaxel IC50); 350 nM in experiment [2] (Homo sapiens, DU-145, DU145/Pac200, read-out: Paclitaxel IC50); 1000 nM in experiment [3] (Homo sapiens, DU-145, Du145 Doc50, read-out: Paclitaxel IC50).
With `COc1ccc(CCN(C)CCCC(C#N)(c2ccc(OC)c(OC)c2)C(C)C)cc1OC` (stereo not shown) [Verapamil], the “SP % with Verapamil” value in experiment [4] (DU145, DCV with 50 μM Verapamil, SP 1.04 % without inhibitor) came to 0.16%; in [5], 0.07%; in [6] it was 1.35%; in [7], 1.63%; in experiment [8], 0.19%; in [9], 0.12%. Moreover, the “SP % with Verapamil” value in experiment [10] amounted to 0.07%.
In the case of `N.N.[Cl][Pt][Cl]` [cisplatin], the IC50 in experiment [1] (DU145 parental, standard MTT, read-out: IC50 of cisplatin) was determined as 4000 nM; in experiment [2] (DU145/Pac200, standard MTT, read-out: IC50 of cisplatin) it was 3000 nM.
